Results from the NIST ThermoML archive (doi:10.1016/j.jct.2016.04.008).

Conditions: Liquid; for mass density: 100 kPa, Buoyancy - hydrostatic balance with magnetic suspension - one sinker

CCCCn1cc[n+](C)c1.F[B-](F)(F)F [1-butyl-3-methylimidazolium tetrafluoroborate]
Conditions	mass density [kg/m3]
264.16 K	1227.3
268.12 K	1224.12
273.71 K	1219.13
278.76 K	1215.77
283.03 K	1212.73
288.51 K	1208.73
293.06 K	1205.28
298.21 K	1201.97
303.18 K	1198.44
307.95 K	1195.03
313.18 K	1191.08
318.12 K	1187.23
323.27 K	1183.84
328.23 K	1179.81
333.27 K	1176.33
338.88 K	1172.3
343.23 K	1169.53
348.21 K	1166.02
353.25 K	1162.72
358.57 K	1159.04
363.9 K	1155.79

CCCCCCCCCCn1cc[n+](C)c1.F[B-](F)(F)F [1-decyl-3-methylimidazolium tetrafluoroborate]
surface tension liquid-gas [mN/m]
Conditions	Ring tensiometer	Willhelmy plate method
283.21 K	30.74	–
287.98 K	30.53	–
288.03 K	–	30.17
293.33 K	30.27	–
293.46 K	–	29.96
298.21 K	30.11	–
298.28 K	–	29.8
303.14 K	29.86	–
303.2 K	–	29.62
308.05 K	29.66	–
308.07 K	–	29.48
313.12 K	29.45	–
313.16 K	–	29.27
318.14 K	–	29.09
318.22 K	29.18	–
322.9 K	–	28.89
322.91 K	28.87	–
328.39 K	28.69	28.66
333.13 K	–	28.48
333.2 K	28.44	–
338.26 K	–	28.28
338.28 K	28.26	–
343.17 K	28.02	–
343.25 K	–	28.12
348.56 K	–	27.89
348.57 K	27.79	–
353.03 K	–	27.7
353.07 K	27.52	–
357.72 K	–	27.55
357.75 K	27.31	–
363.98 K	27.11	27.32

Conditions	mass density [kg/m3]
283.26 K	1083.12
288.04 K	1079.26
293.48 K	1075.46
298.32 K	1072.34
303.26 K	1069.35
308.12 K	1064.91
313.23 K	1061.76
318.16 K	1058.04
323.03 K	1054.91
328.43 K	1051.67
333.15 K	1048.43
338.41 K	1044.81
343.37 K	1041.55
348.69 K	1038.22
353.21 K	1034.92
357.87 K	1032.03
363.98 K	1028.48

CCCCCCCCCCCC[n+]1ccn(C)c1.F[B-](F)(F)F [1-dodecyl-3-methylimidazolium tetrafluoroborate]
surface tension liquid-gas [mN/m]
Conditions	Ring tensiometer	Willhelmy plate method
327.2 K	25.89	–
333.17 K	–	25.79
333.2 K	25.61	–
338 K	–	25.54
338.06 K	25.59	–
342.73 K	–	25.4
343.23 K	25.4	–
347.11 K	25.22	25.26
353.61 K	–	25.03
353.66 K	25.11	–
359.02 K	–	24.82
359.84 K	24.78	–
363.47 K	–	24.64
363.69 K	24.63	–

Conditions	mass density [kg/m3]
328.83 K	1027.93
333.45 K	1024.75
337 K	1022.41
343.4 K	1018.2
347.32 K	1015.89
352.58 K	1012.18
357.71 K	1009
362.85 K	1005.22

CCCCCCCn1cc[n+](C)c1.F[B-](F)(F)F [1-heptyl-3-methylimidazolium tetrafluoroborate]
surface tension liquid-gas [mN/m]
Conditions	Ring tensiometer	Willlhelmy plate method
263.76 K	37.38	–
268.69 K	37.21	–
273.9 K	36.87	–
278.51 K	36.66	–
283.18 K	–	36.23
283.21 K	36.42	–
288.47 K	–	35.98
288.49 K	36.15	–
293.29 K	36.03	35.74
298.21 K	35.76	35.54
303.1 K	35.54	–
303.11 K	–	35.31
308.19 K	–	35.1
308.2 K	35.18	–
313.21 K	34.9	–
313.24 K	–	34.82
317.78 K	34.74	–
317.81 K	–	34.6
323 K	34.45	–
323.06 K	–	34.33
327.79 K	34.24	–
327.8 K	–	34.13
333.01 K	33.87	–
333.09 K	–	33.82
338.61 K	–	33.62
338.64 K	33.54	–
342.42 K	33.44	–
342.5 K	–	33.39
348.76 K	–	33.17
348.79 K	33.17	–
353.93 K	32.8	–
353.99 K	–	32.86
357.12 K	–	32.66
357.16 K	32.47	–
364.34 K	31.97	–
364.4 K	–	32.34

Conditions	mass density [kg/m3]
263.87 K	1147.27
268.63 K	1143.58
273.63 K	1139.44
278.6 K	1136.36
283.19 K	1133.24
288.51 K	1129.35
293.3 K	1126.02
298.21 K	1122.73
303.11 K	1119.42
308.22 K	1115.86
313.23 K	1112.13
317.78 K	1108.94
322.97 K	1105.52
327.81 K	1102.47
333.04 K	1098.48
338.46 K	1095.77
342.6 K	1092.48
348.77 K	1089.11
353.97 K	1085.93
357.24 K	1082.94
364.28 K	1078.73
